Key:
[1] = Tissue distribution of SDC-TRAPs in tumor-bearing mice: plasma, tumor, heart (Examples 14-15); conditions: mouse, in vivo
Procedure: (§1) Tissue Distribution Extraction Procedure for SDC-TRAP Tumor Samples
(§2) A 150 ng/mL solution of SDC-TRAP-0002 in methanol was prepared using an internal spiking solution (500 μg/mL SDC-TRAP-0002 in DMSO). Using the 10 mM stock solutions of the SDC-TRAP molecule and its Hsp90i binding moiety and effector moiety in DMSO, spiking solutions were prepared at 0.025, 0.05, 0.1, 0.5, 1, 5, 10, 50, 100, 250, and 500 μM in DMSO. 5 μL of each spiking solution was added to a 96-deep well plate.
(§3) Quality control standards were prepared from 5 μL of 0.1, 1, and 10 μM calibration standard spiking solution added in triplicate into 96-deep well plate and adding 50 μL of matrix (plasma or homogenized tumor).
(§4) To prepare test samples, test plasma was diluted as needed using blank plasma. Tumor samples were pulverized in liquid nitrogen, weighed, and homogenized in PBS at 5× volume to sample weight. 50 μL of unknown plasma or homogenized tumor sample was mixed with 5 μL of DMSO. The samples were extracted by precipitating calibration standards, QC standards, and unknown samples with 200 μL of internal standard solution. The samples were mixed by vortex at room temperature for approximately 1.5 minutes, then centrifuge at 2-8° C. 150 μL of supernatant was collected and 25 μL of water added. Samples were mixed and analyzed by LC-MS/MS.
(§5) Samples of plasma, heart and tumor were excised from a euthanized mouse, homogenized in PBS at 5 times tissue weight and diluted in 5 μL DMSO/50 μL sample. Prior to analysis, 55 μL samples and calibration standards were precipitated in 200 μL methanol in 96-well plates. Samples were mixed on a vortex mixer for 1.5 minutes at 1500 rpm at room temperature, then centrifuged at 4400 rpm for 10 minutes at 8° C. 150 μL of each supernatant was transferred to a well of a new 96-well plate, and 25 μL of water was added and mixed with the sample. […] For the analysis of samples from female SCID mice, a gradient of solvent A (water/0.1% formic acid) and B (acetonitrile/0.1% formic acid) was used as in Table A below.

in vivo = conditions: mouse, Tumor/Plasma Ratio
Procedure: as §1, §2, §3, §4, §5

| Structure (SMILES) | Kp at 1 h [1] | Kp at 6 h [1] | Kp at 24 h [1] | Kp at […] [1] | concentration at 1 h [1] | concentration at 6 h [1] | concentration at 24 h [1] | also measured |
| --- | --- | --- | --- | --- | --- | --- | --- | --- |
| CC(C)c1cc(-c2nnc(O)n2-c2ccc(CN3CCN(C(=O)Oc4ccc(COC(=O)Nc5cccc6c5CN(C5CCC(=O)NC5=O)C6=O)cc4)CC3)c(F)c2)c(O)cc1O (stereo not shown) [SDC-TRAP-0171, 4-((((2-(2,6-dioxopiperidin-3-yl)-1-oxoisoindolin-4-yl)carbamoyl)oxy)methyl)phenyl-4-(4-(3-(2,4-dihydroxy-5-isopropylphenyl)-5-hydroxy-4H-1,2,4-triazol-4-yl)-2-fluorobenzyl)piperazine-1-carboxylate] | 0.249 | 3.1 | 407 | 0.0164 | 32200 nM | 1210 nM | 1.62 nM | – |
| CCc1c2c(nc3ccc(OC(=O)N4CCN(c5ccc(-n6c(O)nnc6-c6cc(C(C)C)c(O)cc6O)cc5)CC4)cc13)-c1cc3c(c(=O)n1C2)COC(=O)C3(O)CC (stereo not shown) [SDC-TRAP-0045, 4,11-diethyl-4-hydroxy-3,14-dioxo-3,4,12,14-tetrahydro-1H-pyrano[3′,4′:6,7]indolizino[1,2-b]quinolin-9-yl 4-(4-(3-(2,4-dihydroxy-5-isopropylphenyl)-5-hydroxy-4H-1,2,4-triazol-4-yl)phenyl)piperazine-1-carboxylate] | – | 1.35 | – | 0.00624 | – | 1880 nM | 11.3 nM | Kp at 12 h [1]: 8.02; concentration at 12 h [1]: 141 nM |
| CCNC(=O)c1nnc(-c2cc(C(C)C)c(O)cc2O)n1-c1ccc(CN2CCC(C(=O)N3CCN(c4cc(C)c(OC(=O)Nc5cccc6c5CN(C5CCC(=O)NC5=O)C6=O)c(C)c4)CC3)CC2)cc1 (stereo not shown) [SDC-TRAP-0195, 4-(4-(1-(4-(3-(2,4-dihydroxy-5-isopropylphenyl)-5-(ethylcarbamoyl)-4H-1,2,4-triazol-4-yl)benzyl)piperidine-4-carbonyl)piperazin-1-yl)-2,6-dimethylphenyl (2-(2,6-dioxopiperidin-3-yl)-1-oxoisoindolin-4-yl)carbamate] | 0.109 | 2.36 | 5.5 | 0.014 | 211000 nM | 7230 nM | 2030 nM | – |
| CCNC(=O)c1nnc(-c2cc(C(C)C)c(O)cc2O)n1-c1ccc(Oc2ccc(C(=O)N3CCC(C(=O)OC4(CC)C(=O)OCc5c4cc4n(c5=O)Cc5c-4nc4ccc(O)cc4c5CC)CC3)cc2)cc1 (stereo not shown) [SDC-TRAP-0154, 4,11-Diethyl-9-hydroxy-3,14-dioxo-3,4,12,14-tetrahydro-1H-pyrano[3′,4′:6,7]indolizino[1,2-b]quinolin-4-yl 1-(4-(4-(3-(2,4-dihydroxy-5-isopropylphenyl)-5-(ethylcarbamoyl)-4H-1,2,4-triazol-4-yl)phenoxy)benzoyl)piperidine-4-carboxylate] | – | – | – | – | – | – | – | Kp (in vivo; Tissue Distribution Data for SDC-TRAP-0154, time 1 h): 0.06; Kp (in vivo; Tissue Distribution Data for SDC-TRAP-0154, time 6 h): 1.86; Kp (in vivo; Tissue Distribution Data for SDC-TRAP-0154, time 24 h): 11.9; Kp (in vivo; Tissue Distribution Data for SDC-TRAP-0154, time 48 h): 86; Kp (in vivo; Tissue Distribution Data for SDC-TRAP-0154, time […]): 0.01 |
| CCc1c2c(nc3ccc(O)cc13)-c1cc3c(c(=O)n1C2)COC(=O)C3(CC)OC(=O)CN1CCN(c2ccc(-n3c(O)nnc3-c3cc(C(C)C)c(O)cc3O)cc2)CC1 (stereo not shown) [SDC-TRAP-0056, 4,11-diethyl-9-hydroxy-3,14-dioxo-3,4,12,14-tetrahydro-1H-pyrano[3′,4′:6,7]indolizino[1,2-b]quinolin-4-yl 2-(4-(4-(3-(2,4-dihydroxy-5-isopropylphenyl)-5-hydroxy-4H-1,2,4-triazol-4-yl)phenyl)piperazin-1-yl)acetate] | – | – | – | – | – | – | – | Kp (in vivo; Tissue Distribution Data for SDC-TRAP-0056, time 6 h): 1.28; Kp (in vivo; Tissue Distribution Data for SDC-TRAP-0056, time 12 h): 1.95; Kp (in vivo; Tissue Distribution Data for SDC-TRAP-0056, time […]): 0.00525 |
